The test system of the series is HH cells (CTCL cells; ATCC). Put plainly: ViaLight Plus viability/proliferation assay, Vorinostat and Targretin combination. It counts as cell-based. On the procedure: Data from these assays was used to determine the range of combination concentrations. Both compounds were combined at concentrations close to their IC50 values. Subsequent combination viability/proliferation assays were performed using the ViaLight Plus protocol.
Costar white with clear bottom 96 well plates (#3603) were seeded with 25,000 cells per well in a volume of 100 μL/well of growth media for each time point. HH cell line growth media included RPMI (GIBCO #) with 10% FBS (GIBCO # SV30014.03), 1% Glutamax (GIBCO # 35050-061), and 1% Penicillin/Streptomycin (GIBCO # 30-002). […] For the fixed ratio method, compounds were combined and diluted together serially. […] For each treatment concentration, 25 μL of the appropriate dilution for each compound was added to the corresponding wells. Wells on the outer perimeter of the plate were not used. At each time-point, plates were read using the ViaLight Plus protocol. Luminescence was read using the Victor V plate reader.

For `C=C(c1ccc(C(=O)O)cc1)c1cc2c(cc1C)C(C)(C)CCC2(C)C` [Targretin®, 4-[1-(5,6,7,8-Tetrahydro-3,5,5,8,8-pentamethyl-2-naphthalenyl)ethenyl]benzoic acid], the decrease in viability (HH cell line, 0.60 μM Targretin alone (FIG. 1A)) is recorded as around 40%. On to `O=C(CCCCCCC(=O)Nc1ccccc1)NO` [Vorinostat, N-Hydroxy-N′-phenyl octanediamide], for which the cytotoxicity at 0.37 µM (Homo sapiens, HH, read-out: decrease in cell viability) was around 40%.
